# Biological target: T1, prostanoid receptor subtype (mouse EP1) (Mus musculus, UniProt P35375)
# T1 construct: expressed in transfected cells; host or cells: CHO cells (membrane fraction)
# T1 sequence (P35375 1-405): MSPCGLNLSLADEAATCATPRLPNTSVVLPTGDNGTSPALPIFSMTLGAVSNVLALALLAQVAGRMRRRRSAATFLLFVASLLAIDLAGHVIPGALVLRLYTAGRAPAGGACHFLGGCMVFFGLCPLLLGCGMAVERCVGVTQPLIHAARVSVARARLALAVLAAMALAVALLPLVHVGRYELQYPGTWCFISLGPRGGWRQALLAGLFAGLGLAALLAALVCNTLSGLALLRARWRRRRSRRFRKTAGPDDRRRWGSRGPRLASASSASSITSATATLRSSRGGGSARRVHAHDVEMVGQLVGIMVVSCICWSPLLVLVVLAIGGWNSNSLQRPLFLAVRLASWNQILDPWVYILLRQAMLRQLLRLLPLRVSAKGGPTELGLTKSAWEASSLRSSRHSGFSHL
# Assay: Binding assay using expression cell of prostanoid receptor subtype (3H-PGE2 competition, CHO cell membrane fraction)
# Details: membrane fraction of CHO cell expressing mouse EP1; 3H-PGE2 2.5 nM; Ki=IC50/(1+([C]/Kd)); read-out: dissociation constant Ki
# Procedure: (i) Binding Assay Using Expression Cell of Prostanoid Receptor Subtype
# The preparation of membrane fraction was carried out according to the method of Sugimoto et al (J. Biol. Chem. 267, 6463-6466 (1992)), using expression CHO cell of prostanoid receptor subtype (mouse EP1).
# The standard assay mixture contained membrane fraction (0.5 mg/ml), ^3H-PGE2 in a final volume of 200 μl was incubated for 1 hour at room temperature. The reaction was terminated by addition of 3 ml of ice-cold buffer. The mixture was rapidly filtered through a glass filter (GF/B). The radioactivity associated with the filter was measured by liquid scintillation counting.
# Kd and Bmax values were determined from Scratchard plots (Ann. N.Y. Acad. Sci. 51, 660 (1949)). Non-specific binding was calculated as the bond in the presence of an excess (2.5 μM) of unlabeled PGE2. In the experiment for competition of specific ^3H-PGE2 was added at a concentration of 2.5 nM and the compound of the present invention was added at a various concentration. The following buffer was used in all reaction.
# Buffer: potassium phosphate (pH6.0, 10 mM), EDTA (1 mM), MgCl2 (10 mM), NaCl (0.1M).
# The dissociation constant Ki (μM) of each compound was calculated by the following equation.
row,Structure (SMILES),Ki [nM]
1,"O=C(O)c1ccc(NC(=O)c2cc(Br)ccc2NS(=O)(=O)c2ccc(Cl)cc2)cc1 [2(k), 4-[2-(4-chlorophenylsulfonylamino)-5-bromobenzoylamino]benzoic acid]",99
2,"CC(C)N(c1ccc(C(F)(F)F)cc1/C=C/c1ccc(C(=O)O)cc1)S(=O)(=O)c1ccccc1 [Example 48, 4-[2-[2-(N-isopropyl-phenylsulfonylamino)-5-trifluoromethylphenyl]-(E)-vinyl]benzoic acid]",10
3,"CC(C)N(c1ccc(C(F)(F)F)cc1N(C)Cc1ccc(C(=O)O)cc1)S(=O)(=O)c1ccccc1 [Example 30, 4-[N-methyl-[2-(N-isopropyl-phenylsulfonylamino)-5-trifluoromethylphenyl]aminomethyl]benzoic acid]",73
4,"O=C(O)c1ccc(COc2cc(Cl)ccc2CNS(=O)(=O)c2ccccc2)cc1 [Example 43, 4-(2-phenylsulfonylaminomethyl-5-chlorophenoxymethyl)benzoic acid]",380
5,"O=C(O)c1ccc(COc2cc(Cl)ccc2NS(=O)(=O)c2ccccc2)nc1 [22(3), 6-(2-phenylsulfonylamino-5-chlorophenoxymethyl)nicotinic acid]",480
6,"CC(C)N(c1ccc(C(F)(F)F)cc1OC[C@H]1CC[C@H](C(=O)O)CC1)S(=O)(=O)c1ccccc1 [18(38), trans-4-[2-(N-isopropyl-phenylsulfonylamino)-5-trifluoromethylphenoxymethyl]cyclohexanoic acid]",16
7,"CC(C)N(c1ccc(Cl)cc1OCc1ccc(C(=O)O)o1)S(=O)(=O)c1ccccc1 [24(9), 5-[2-(N-isopropyl-phenylsulfonylamino)-5-chlorophenoxymethyl]furan-2-carboxylic acid]",18
8,"O=C(O)c1ccc(COc2ncc(C(F)(F)F)cc2NS(=O)(=O)c2ccccc2)cc1 [Example 38, 4-(3-phenylsulfonylamino-5-trifluoromethylpyridine-2-yloxymethyl)benzoic acid]",160

# More lines, in order of falling Ki, values ahead:
row,Ki [nM],Structure (SMILES)
1,9.9,"Cc1ccc(N(C(C)C)S(=O)(=O)CC2CCCC2)c(OCc2ccc(C(=O)O)cc2)c1 [20(20), 4-[2-(N-isopropyl-cyclopentylmethylsulfonylamino)-5-methylphenoxymethyl]benzoic acid]"
2,6.2,"CC(C)N(c1ccc(Cl)cc1OCc1ccc(C(=O)O)cc1)S(=O)(=O)c1cccs1 [18(58), 4-[2-(N-isopropyl-2-thienylsulfonylamino)-5-chlorophenoxymethyl]benzoic acid]"
3,5.8,"CC(C)N(c1ccc(C(F)(F)F)cc1OCc1ccc(OCC(=O)O)cc1)S(=O)(=O)c1ccccc1 [Example 24, 4-[2-(N-isopropyl-phenylsulfonylamino)-5-trifluoromethylphenoxymethyl]phenoxy acetic acid]"
4,5.4,"CCCS(=O)(=O)N(Cc1ccccc1)c1ccc(C)cc1OCc1ccc(C(=O)O)cc1 [18(75), 4-[2-(N-benzyl-propylsulfonylamino)-5-methylphenoxymethyl]benzoic acid]"
5,1.6,"O=C(O)c1ccc(COc2cc(C(F)(F)F)ccc2N(C2CCCC2)S(=O)(=O)c2ccccc2)cc1 [18(30), 4-[2-(N-cyclopentyl-phenylsulfonylamino)-5-trifluoromethylphenoxymethyl]benzoic acid]"
6,1.3,"CC(C)N(c1ccc(C(F)(F)F)cc1OCc1ccc(C#CC(=O)O)cc1)S(=O)(=O)c1ccccc1 [Example 44, 4-[2-(N-isopropyl-phenylsulfonylamino)-5-trifluoromethylphenoxymethyl]phenylpropiolic acid]"
7,0.4,"CC(C)CN(c1ccc(C(F)(F)F)cc1OCc1ccc(/C=C/C(=O)O)cc1)S(=O)(=O)c1ccco1 [18(94), 4-[2-(N-isobutyl-2-furanylsulfonylamino)-5-trifluoromethylphenoxymethyl]cinnamic acid]"
8,0.2,"CCN(c1ccc(C(F)(F)F)cc1OCc1ccc(/C=C/C(=O)O)cc1)S(=O)(=O)c1ccccc1 [18(102), 4-[2-(N-ethyl-phenylsulfonylamino)-5-trifluoromethylphenoxymethyl]cinnamic acid]"

# Reference: US6790866B2, “Sulfonamide and carboxamide derivatives and drugs containing the same as the active ingredient” (Ono Pharmaceutical Co., Ltd., priority 1996, dated 2004)
